In patent US20220040236A1, “COMPOSITIONS AND METHODS OF TREATMENT OF VISION LOSS THROUGH GENERATION OF ROD PHOTORECEPTORS FROM MÜLLER GLIAL CELLS” (ICAHN SCHOOL OF MEDICINE AT MOUNT SINAI, priority 2018, published 2022):

What was measured:
Format in all cases: in vivo, mouse
[1] = system: retinal ganglion cells and amacrine cells; test: NMDA-induced cell death, anti-HuC/D immunohistochemistry in the ganglion cell layer; settings: 36 hours post-NMDA injection, 200 nmol NMDA intravitreal
Method: (§1) Adult mice at 4 weeks of age were anesthetized with an intraperitoneal injection of ketamine (50 mg/kg mouse body weight) and xylazine (5 mg/kg mouse body weight). Intravitreal injection was performed using a microsyringe equipped with a 33 gauge needle. The tip of the needle was passed through the sclera, at the equator and next to the dorsal limbus of the eye, into the vitreous cavity. Injection volume is 1 μl per eye for AAVs or other chemicals including NMDA (Acros Organics, 100 mM) and XAV939 (Sigma, 10 μM).
Retinas were fixed with 4% paraformaldehyde in PBS for 30 minutes at room temperature, followed by overnight incubation at 4° C. in PBS containing 30% sucrose. […]
To examine MG proliferation induced by neurotoxic injury in the adult mammalian retina, 200 nmol was injected NMDA into the vitreous chamber of the mouse retina at 4 weeks of age. […] NMDA-induced cell proliferation was quantified by scoring the number of EdU^+ cells/mm^2 in retinal flatmount preparations. […]
To examine the ability of inhibition of Wnt signaling to suppress NMDA-induced MG proliferation, NMDA was co-injected with XAV939, a selective Wnt signaling antagonist (Huang et al., Nature, 2009, 461:614-620), and the number of EdU^+ cells per mm^2 in retinal flatmount preparations was quantified 60 hours post-injection, when the maximum number of EdU^+ cells were detected (FIG. 2A). […]

Müller glial cells (MGs) = test: NMDA-induced MG proliferation, EdU incorporation in retinal flatmount preparations
Method: as §1
EdU solution (1 ul) was intravitreally injected into the vitreous chamber at the concentration of 1 mg/ml. Analysis of EdU incorporation was performed using Click-iT EdU Kit (Invitrogen, Grand Island, N.Y.). In brief, retinal cryostat sections or flatmount preparations were washed in PBS first for 10 min and then washed twice in PBS containing 3% BSA, followed by permeabilization in PBS containing 0.5% Triton X-100 for 20 min. After washing twice in PBS containing 3% BSA, EdU detection components were resuspended according to manufacturer's instructions and applied directly to retinal samples. The solution for each EdU reaction has a total volume of 250 μl composed of 215 μl 1× Click-iT reaction buffer, 10 μl CuSO4, 0.6 μl Alexa Fluor azide, and 25 μl 1× Reaction buffer additive. After incubation in the reaction solution for 30 minutes at room temperature, samples were washed with PBS and mounted with Fluoromount-G for detection.
To examine MG proliferation induced by neurotoxic injury in the adult mammalian retina, 200 nmol was injected NMDA into the vitreous chamber of the mouse retina at 4 weeks of age. The same dosage of NMDA was previously used to introduce retinal injury leading to MG proliferation in adult rat and mouse retina (Karl et al., Proc Natl Acad Sci USA, 2008, 105:19508-19513; Ooto et al., Proc Natl Acad Sci USA, 2004, 101:13654-13659). Anti-HuC/D immunohistochemistry was used to assay the time course of NMDA-induced cell death in the ganglion cell layer (GCL). […] To assay cell proliferation, 1 μl of 1 mg/ml of EdU, a nucleoside analog of thymidine that is incorporated into DNA during active DNA synthesis, was injected into the vitreous chamber 5 hours before tissue collection at 24, 36, 48, 60, 72, and 96 hours post-NMDA injection. NMDA-induced cell proliferation was quantified by scoring the number of EdU^+ cells/mm^2 in retinal flatmount preparations. A small number (4.7±0.8) of EdU^−1 cells appeared 36 hours post-NMDA injection. The number of EdU^−1 cells continued to increase, reaching 223.3±8.3 and 264.5±8.4 at 48 and 60 hours, respectively, before it was reduced to 5.8±1.1 at 72 hours post-NMDA injection (FIG. 2A). The EdU^−1 cells were also immunoreactive for CyclinD3 and p27^kip1 (FIG. 2B), MG-specific nuclear antigens (Dyer and Cepko, Nat Neurosci. 2000, 3:873-880).
To examine the ability of inhibition of Wnt signaling to suppress NMDA-induced MG proliferation, NMDA was co-injected with XAV939, a selective Wnt signaling antagonist (Huang et al., Nature, 2009, 461:614-620), and the number of EdU^+ cells per mm^2 in retinal flatmount preparations was quantified 60 hours post-injection, when the maximum number of EdU^+ cells were detected (FIG. 2A). […] To assay whether XAV939 treatment affects NMDA-induced retinal damage, the number of HuC/D+ cells was quantified in the GCL at 60 hours post-injection.
Lin28 is a direct transcriptional target of Wnt/β-catenin signaling. […]

Wnt signaling pathway = test: quantitative PCR of Wnt genes, Wnt antagonists and Wnt target genes after NMDA injury
Method: Total RNA was extracted from retinas using TRIzol (Invitrogen, Grand Island, N.Y.) according to the manufacture's protocol. Reverse transcription (RT) was then performed at 42° C. for 2 hours in a volume of 20 μl containing 0.5 μg of oligo(dT), 1×RT buffer, 0.5 mM each deoxyribonucleotide triphosphate, 0.1 mM dithiothreitol, and 200 U of Superscript II reverse transcriptase (Invitrogen, Grand Island, N.Y.). Real-Time quantitative PCR (qPCR) was performed in triplicate with SsoFast™ EvaGreen supermix (Bio-Rad, Hercules, Calif.) using an iCycler real-time PCR detection system (Bio-Rad, Hercules, Calif.). The amplification protocol was 30 seconds at 94° C., 30 seconds at 56° C., and 30 seconds at 72° C., with a signal detection period of 7 seconds at 80° C. A melt curve analysis was performed at the end of the reaction to check the reaction specificity. Results were obtained after normalization to the expression level of the housekeeping gene, B-actin. All experiments were performed at least twice to ensure repeatable results.
To examine whether Wnt signaling is activated by NMDA-induced neurotoxic injury, quantitative PCR was performed to assay the RNA levels of Wnt genes at 3, 6, 12, 18, 24, 36, and 48 hours post-NMDA injection, relative to the PBS injected retina as a control. […] The upregulation of Wnt genes and a concomitant downregulation of WIF-1 and Dkk1 would predict activation of the canonical Wnt/β-catenin signaling pathway. Indeed, 24 hours post-NMDA injection, a 3.4-fold upregulation of CyclinD1 (Ccnd1, FIG. 2D), a target gene of the Wnt signaling pathway (Shtutman et al., Proc Natl Acad Sci USA, 1999, 96:5522-5527; Tetsu and McCormick, Nature, 1999, 398:422-426) and key regulator of the cell cycle progression from the G1 to S phase (Resnitzky et al., Mol Cell Biol. 1994, 14:1669-1679), was detected.

Row | SMILES | HuC/D+ cells remaining [1] [%] | number of EdU+ cells/mm^2 (Müller glial cells (MGs); 36 hours post-NMDA injection) [cells/mm^2] | number of EdU+ cells/mm^2 (Müller glial cells (MGs); 48 hours post-NMDA injection) [cells/mm^2] | number of EdU+ cells/mm^2 (Müller glial cells (MGs); 60 hours post-NMDA injection) [cells/mm^2] | number of EdU+ cells/mm^2 (Müller glial cells (MGs); 72 hours post-NMDA injection) [cells/mm^2] | RNA levels for Wnt genes (Wnt2b, Wnt8a, Wnt8b, Wnt9a, Wnt10a), upregulation (Wnt signaling pathway; 6-24 hours post-NMDA injection, relative to PBS injected retina) | RNA levels for WIF-1 (Wnt signaling pathway; 12 hours post-NMDA injection) | RNA levels for Dkk1 (Wnt signaling pathway; 24 hours post-NMDA injection) | upregulation of CyclinD1 (Ccnd1) (Wnt signaling pathway; 24 hours post-NMDA injection) [fold] | RNA levels of Lef1 and Axin2 (Wnt signaling pathway; post-NMDA injection) | number of EdU+ cells per mm^2 versus NMDA injection alone (Müller glial cells (MGs); XAV939 co-injected with NMDA, 60 hours post-injection)
1 | CN[C@H](CC(=O)O)C(=O)O [NMDA] | ~45 | 4.7±0.8 | 223.3±8.3 | 264.5±8.4 | 5.8±1.1 | at least 3 fold | 1.6±0.2 % of the control | 13.2±0.6 % of the control | 3.4 | significant upregulation | 
2 | Oc1nc(-c2ccc(C(F)(F)F)cc2)nc2c1CSCC2 [XAV939] |  |  |  |  |  |  |  |  |  |  | significantly reduced
